From paper PMC8335727 (Inorganic Chemistry, 2021)
Like-named read-outs stand apart in the source and are kept apart here.

What was measured:
Colo320 = experiment: MTT cytotoxicity assay, Colo320; type: cell-based; conditions: Homo sapiens, COLO 320, 72 h of exposure
Protocol: (§1) The in vitro cytotoxicity of the TSCs HL^1–HL^3, copper(II) complexes Cu(HL^1)Cl2, [Cu(L^2)Cl], and Cu(HL^3)Cl2, and oxidized TSCs HL^1a′, HL^1a″, and HL^2c′·CH3COOH was tested in the doxorubicin-sensitive Colo205 and the multidrug-resistant Colo320 human colonic adenocarcinoma cell lines as well as in normal human embryonal lung fibroblast cells (MRC-5) by the colorimetric MTT assay. […]
(§2) 2.5. In vitro cell studies
(§3) 2.5.1. Cell lines and culture conditions
(§4) All cell culture reagents were obtained from Sigma-Aldrich and plastic ware from Sarstedt
(§5) (Germany). Doxorubicin-sensitive human colonic Colo 205 and multidrug resistant
(§6) Colo 320/MDR-LRP adenocarcinoma cell lines were purchased from LGC Promochem,
(§7) Teddington, UK. The cells were cultured in Roswell Park Memorial Institute (RPMI) 1640
(§8) medium supplemented with 10% heat-inactivated fetal bovine serum, 2 mM L-glutamine, 1 mM
(§9) Na-pyruvate and 100 mM Hepes. The cell lines were incubated at 37°C, in a 5% CO2, 95% air
(§10) MRC-5 human embryonal lung fibroblast cell line (ATCC CCL-171) was purchased from LGC
(§11) Promochem, Teddington, UK. The cell line was cultured in Eagle’s Minimal Essential Medi um
(§12) (EMEM, containing 4.5 g/L glucose) supplemented with a non-essential amino acid mixture, a
(§13) selection of vitamins and 10% heat-inactivated fetal bovine serum. The cells were incubated at
(§14) 37°C, in a 5% CO2, 95% air atmosphere. All cell lines were detached with Trypsin-Versene
(§15) (EDTA) solution for 5 min at 37 °C.
(§16) The tested compounds were dissolved in DMSO using 10 mM concentration. Then stock solutions
(§17) were diluted in complete culture medium in 96-well microtiter plates, and two-fold serial dilutions
(§18) of compounds were prepared in 100 µL of RPMI 1640, horizontally. The semi-adherent colonic
(§19) adenocarcinoma cells were treated with Trypsin -Versene (EDTA) solution. They were adjusted to
(§20) a density of 1×10^4 cells in 100 µL of RPMI 1640 medium, and were added to each well, with the
(§21) exception of the medium control wells. The final volume of the wells containing compounds and
(§22) cells was 200 µL. The culture were incubated at 37 °C for 72 h; at the end of the incubation period,
(§23) 20 µL of MTT solution (from a stock solution of 5 mg/mL) were added to each well. After
(§24) incubation at 37 °C for 4 h, 100 µL of SDS solution (10% in 0.01 M HCI) were added to each well
(§25) and the plates were further incubated at 37 °C overnight. The cell growth was determined using
(§26) both methods by measuring the optical density (OD) at 450 nm (ref. 620 nm) with a Multiscan EX
(§27) ELISA reader. Inhibition of the cell growth (expressed as IC 50: inhibitory concentration that
(§28) reduces by 50% the growth of the cells exposed to the tested compounds) was determined from
(§29) the sigmoid curve where 100 – ((ODsample ‒ ODmedium control)/(ODcell control ‒ ODmedium control)) × 100
(§30) values were plotted against the logarithm of compound concentrations. […]
(§31) 0.76 tyrosyl radical/polypeptide. Samples containing 20 µM mR2 in 50 mM HEPES buffer, pH
(§32) 7.50/100 mM NaCl, and 20 µM respective compound in 1% (v/v) DMSO/H2O, and 2 mM

[1] = pKa by UV–vis titrations in 30% (v/v) DMSO/H2O; type: physicochemical; conditions: 30% (v/v) DMSO/H2O solvent mixture, I = 0.1 M (KCl), T = 25 °C
Source text: Proton dissociation constants (pKa) of drug molecules indicate the actual protonation state and the charge at a given pH, and therefore pKa are important parameters that affect the pharmacokinetic properties as well.
On the basis of the spectral changes two well-separated deprotonation processes were observed between pH 2 and 11. The first proton dissociation step taking place at pH < 5 is accompanied by a blue shift, and the λmax is shifted from 362 to 322 nm. This deprotonation step is attributed to the proton on the pyridinium nitrogen (PyH^+). Upon an increase of the pH a new process occurred as evidenced by a new band in the range of 350–450 nm (Figure 7b) and an isosbestic point at 350 nm, namely, the deprotonation of the hydrazinic nitrogen. In the strongly basic pH range (pH > 11.2) new broad bands appear at 400–600 nm (Figure 7b) with irreversible spectral changes most likely due to an oxidation of the TSC by the air oxygen.
Therefore, only two pKa values could be determined (Table 1) based on the deconvolution of the UV–vis spectra recorded at pH < 11.2 for HL^1 (molar absorbance spectra are seen in Figure S8a) as the oxidation hindered the accurate determination of the pKa for the aromatic OH group. Two pKa values were computed for HL^2 from the UV–vis titration data (Figure S9) as well; however, only one pKa was obtained in the case of HL^3 (Table 1), namely, that for the deprotonation of the PyH^+, since the proton dissociation of the hydrazinic nitrogen and the oxidation of the TSC were partly overlapped. On the basis of the determined pKa values, it can be concluded that the presence of the electron-donating methyl group in HL^2 results in a significant increase of both pKa values when compared to that of HL^1. A similar behavior was reported for the analogous 2-formylpyridine and 2-acetylpyridine TSC in our previous work.[67] […] All proligands are air-sensitive in the strongly basic pH range (pH > 11).
The metal complexes often undergo transformation processes upon dissolution, such as protonation, deprotonation, or dissociation to a metal-free ligand and metal ion depending on the pH, their concentration, and the solution speciation. The knowledge of the actual chemical form of the biologically active metal complexes in solution close to physiologically relevant conditions is quite important to elucidate the mechanism of action. Therefore, the solution stability of the copper(II) complexes (Cu(HL^1)Cl2, [Cu(L^2)Cl], and Cu(HL^3)Cl2) was studied by UV–vis spectrophotometry. […] At lower pH this type of complex is protonated, and thus the neutral ligand is bound via (Npyridine,N,S) donor atoms, while a mixed hydroxido complex with the (Npyridine,N,S^–)(OH) coordination pattern is formed in the basic pH range. On the basis of the close structural similarities between HL^1–HL^3 and the listed TSCs with a simpler scaffold, the formation of the same type of complexes is feasible. UV–vis titrations were performed with the complexes in a 30% (v/v) DMSO/H2O solvent mixture, and representative spectra are shown for Cu(HL^1)Cl2 in Figure 8. The spectra remain intact in a broad pH range (2.7–7.6), and an absorption band is observed with λmax at 406 nm being typical for a S → Cu charge transfer. This finding indicates the dominant presence of only one kind of complex, which is most probably the species with the (Npyridine,N,S^–) tridentate coordination mode. By decreasing the pH the λmax is hypsochromically shifted to 322 nm. […]

Colo205 = experiment: MTT cytotoxicity assay, Colo205; type: cell-based; conditions: Homo sapiens, COLO 205, 72 h of exposure
Protocol: as §1, §2, §3, §4, §5, §6, §7, §8, §9, §10, §11, §12, §13, §14, §15, §16, §17, §18, §19, §20, §21, §22, §23, §24, §25, §26, §27, §28, §29, §30, §31, §32

SMILES	IC50 (Colo320) [µM]	pKa ([1]; read-out: pKa (NNH))	pKa ([1]; read-out: pKa (PyH^+))	IC50 (Colo205) [µM]
Cc1cc(NC(=S)NN=Cc2ccccn2)cc(C)c1O [HL^1, 2-Formylpyridine 4-(4-hydroxy-3,5-dimethylphenyl)thiosemicarbazone]	6.32 ± 0.49	10.55 ± 0.01	3.01 ± 0.01	> 100
Cc1cc(NC(=S)NN=Cc2ncccc2N)cc(C)c1O [HL^3, 3-Amino-2-formylpyridine 4-(4-hydroxy-3,5-dimethylphenyl)thiosemicarbazone]	> 100		3.95 ± 0.04	48.2 ± 6.8
CC(=NNC(=S)Nc1cc(C)c(O)c(C)c1)c1ccccn1 [HL^2, 2-Acetylpyridine 4-(4-hydroxy-3,5-dimethylphenyl)thiosemicarbazone]	> 100	11.08 ± 0.02	3.59 ± 0.02	> 100
